Here are results for two molecules from US20210052600A1, “THERAPEUTIC AGENTS FOR STRESS URINARY INCONTINENCE AND INCOTINENCE OF FECES” (Takeda Pharmaceutical Company Limited, priority 2017, published 2021).

Data set [1] deals with urethral resistance increasing effect of Compound A′. As to the kind of experiment: Influence of antagonists (SB 242084, methiothepin) on urethral resistance increasing effect of Compound A′ in rats. It is filed as in vivo, rat. The note with it: mean ± SEM; for LPP Increase: Post minus Pre; for LPP Pre: before administration. The protocol:
Ninety female rats of SD strain were used. […] Isoflurane inhalation was added during the surgery, if necessary. In the experiment with intrathecal administration, the dura mater was exposed by laminectomy and then partially opened by incision, through which a catheter (PE-10) filled with saline was then implanted at the level of the L6-S1 site, followed by the closing of the incision. After opening of the abdomen, a catheter (PE-90) was inserted into the bladder. In order to secure reduced urethral resistance, unilateral nerve to iliococcygeus and pubococcygeus muscles was transected. For intraduodenal administration, another catheter (PE-50) was inserted into the duodenum in advance. The abdominal muscle and skin were each closed with sutures. Two (right and left) sites of abdominal skin near the diaphragm were cut to expose abdominal muscle. The bladder was emptied through the catheter, followed by the injection of 0.2 to 0.3 mL of Evans blue solution. Change in intravesical pressure was recorded using the bladder catheter via a pressure transducer, an electric signal amplifier, and an analog-to-digital converter. While change in intravesical pressure was recorded, the presence or absence of fluid leakage from the urethral orifice was observed under the electrical stimulation of the exposed abdominal muscle using an electrical stimulator and an isolator. […] The peak of the intravesical pressure during the stimulation of the abdominal muscle was measured, and the lowest pressure at which the fluid leakage was observed among the trials was defined as LPP for the electrical abdominal muscle stimulation method. In order to examine whether the urethral resistance increasing effect of Compound A′ is based on its agonistic potency on 5-HT2C receptors, SB 242084, methiothepin, or a vehicle was intravenously administered, and Compound A′ or a vehicle was intraduodenally administered 5 minutes later. SB 242084 was dissolved in a mixed solution of N,N-dimethylacetamide and polyethylene glycol 400 (1:1) and administered at 0.03 mg/0.5 mL/kg, 0.1 mg/0.5 mL/kg and 0.3 mg/0.5 mL/kg. Methiothepin was dissolved in saline and administered at 0.03 mg/0.5 mL/kg. 0.1 mg/0.5 mL/kg and 0.3 mg/0.5 mL/kg. Compound A′ was suspended in 0.5% MC and administered at 3 mg/mL/kg. LPP was measured again 30 minutes after Compound A′ administration. In order to examine where Compound A′ works in the body to increase urethral resistance, the blocking of the effect of Compound A′ was confirmed by blocking the functions of Compound A′ by giving methiothepin at a particular site in the body. Particularly, in the experiment with intrathecal administration, methiothepin or a vehicle was intrathecally administered, and Compound A′ or a vehicle was intraduodenally administered 5 minutes later. Methiothepin was dissolved in saline and 20 μL of the obtained solution was administered. Compound A′ was suspended in 0.5% MC and administered at 3 mg/mL/kg. LPP was measured again 30 minutes after Compound A′ administration.
Regarding change in LPP before and after drug administration, the differences between the mean values of the Compound A′-treated and vehicle-treated groups were analyzed by the Student's t test or the Welch's test. In order to analyze the influence of the antagonists on the effect of Compound A′, the differences between the mean values of the SB 242084- or methiothepin- and Compound A′-administered group and the vehicle- and Compound A′-administered group were analyzed by the one-tailed Williams' test.

The test system of data set [2] is anus-closing function increasing effect of Compound A′. As to the kind of experiment: Influence of SB 242084 on Compound A′-induced rat anus-closing function increasing effect (Anal LPP). The class given is in vivo. The note with it: SB242084 0.3 mg/kg i.v. then Compound A′ 1 mg/kg i.v.; 5 minutes after Compound A′; n=9. The procedure: Eighteen female SD rats were used. After overnight fasting, rats were intraperitoneally administered with urethane for anesthesia, and isoflurane inhalation was added during surgery. The abdomen was incised to expose the rectum, and a small incision of the rectum was made. A polyethylene catheter (SP61, Natsume) was inserted into the rectum through the rectum incision, and the tip of the catheter was positioned around 5 mm from the anal orifice. The other end of the catheter was connected with a pressure transducer and an infusion pump via three-way stopcocks, and the change in pressure in the rectum was measured using the pressure transducer, an electric signal amplifier, and an analog-to-digital converter. For administrating drugs, a polyethylene catheter (SP45, Natsume) was inserted into the femoral vein after exposing the vein by small incision.
After recovery period from surgery, while saline was infused at a speed of 0.1 mL/sec into the rectum using an infusion pump, change in the measured pressure—was observed. […] The peak value of the pressure recorded in the rectum during the course of the procedures was defined as “an Anal LPP” in this Example. […] The Anal LPP was again measured in the same way 5 minutes after the administration with Compound A′. The difference in Anal LPP from the Pre value (increased amount of Anal LPP) was calculated. […]

The conditions of data set [3]: rat, in vivo, 2.5 mg/kg.
Protocol: (§1) Ten female rats of SD strain were anesthetized with isoflurane. In order to secure the same conditions as those for drug-administered animals, their spinal cord was transected at the T8-T9 (the eighth thoracic cord—the ninth thoracic cord) level. Then, a cannula for blood collection was inserted into the femoral artery. […] These drugs were each dissolved in 0.5% MC. Thirty minutes after oral administration, up to 250 μL of blood was collected from the femoral artery or the tail vein and treated with heparin. The collected blood was immediately cooled on ice and centrifuged under conditions involving 3,000 rpm and 4° C. for 10 minutes to obtain plasma. The plasma samples were stored under conditions of −80° C. until drug quantification.
(§2) After thawing of the plasma samples, the internal standard compound was added thereto, and the mixture was then centrifuged under conditions of 5,250 rpm. The drug contained in 60 μL of the supernatant was quantified by LC-MS/MS.
The nature of data set [4]: Plasma concentrations in rats 30 minutes after oral administration (effective plasma concentration at LPP10). As to conditions: rat; measured concentration multiplied by ratio between dosage used and LPP10.
Protocol: as §1, §2
Data set [5] is described as follows: Comparison of plasma concentrations for urethra-closing effect and anti-obesity effect (analysis of Examples 1-9 and literature). The note with it: free form; extrapolated, 3.3-fold less than rat 670 ng/mL.
Where [6] appears, read: SB 242084 0.03 mg/kg i.v. + Compound A′ 3 mg/kg i.d.
Setting [7] is: SB 242084 0.1 mg/kg i.v. + Compound A′ 3 mg/kg i.d.
[8] abbreviates: SB 242084 0.3 mg/kg i.v. + Compound A′ 0 mg/kg i.d.
The mark [9] stands for this setting: SB 242084 0.3 mg/kg i.v. + Compound A′ 3 mg/kg i.d.

As to `Cc1cc2c(cc1Cl)N(C(=O)Nc1ccc(Oc3cccnc3C)nc1)CC2` [SB 242084], the “LPP Post” value in data set [1] (SB 242084 0.03 mg/kg i.v. + Compound A′ 3 mg/kg i.d., 30 minutes after Compound A′) came out at 73.9 ± 8.7 cmH2O; in data set [1] (SB 242084 0.1 mg/kg i.v. + Compound A′ 3 mg/kg i.d., 30 minutes after Compound A′), 57.6 ± 12.2 cmH2O; in data set [1] (SB 242084 0.3 mg/kg i.v. + Compound A′ 0 mg/kg i.d., 30 minutes after i.d. administration), 49.3 ± 8.7 cmH2O; in data set [1] (SB 242084 0.3 mg/kg i.v. + Compound A′ 3 mg/kg i.d., 30 minutes after Compound A′), 48.0 ± 6.9 cmH2O. Further, the “LPP Increase” value in data set [1] (setting [6]) is on record as 29.9 ± 8.4 cmH2O; in data set [1] (setting [7]), 12.6 ± 6.3 cmH2O; in data set [1] (setting [8]), 3.4 ± 4.6 cmH2O; in data set [1] (setting [9]) it was 3.8 ± 4.4 cmH2O. Moreover, the “LPP Pre” value is 44.0 ± 7.4 cmH2O in data set [1] (setting [6]), 45.0 ± 6.7 cmH2O in data set [1] (setting [7]), 45.9 ± 5.4 cmH2O in data set [1] (setting [8]) and 44.3 ± 7.0 cmH2O in data set [1] (setting [9]). Besides, the “Anal LPP Increase” value in data set [2] is on record as -2.6±4.1 cmH2O.

In the case of `CC(C)N(C)c1cnc2c(n1)OCCNC2.Cl` [Compound A, N-methyl-N-(1-methylethyl)-6,7,8,9-tetrahydropyrazino[2,3-f][1,4]oxazeine-3-amine], in data set [3], the “plasma concentration 30 minutes after oral administration” value was determined as 94.8 ± 24.1 ng/mL. The “plasma concentration at LPP10” value in data set [4] is 61 ng/mL. In addition, in data set [5], the “average plasma concentration in a day (steady state) giving a body weight lowering effect greater than placebo by 3.8% in humans” value was 203 ng/mL.
